Test results: patent US4411908A, “Imidazoline derivatives as presynaptic α2 -adrenoreceptor antagonists” (priority 1981, dated 1983)
Structures can show the parent of a compound that is named as a salt. Where two headings read alike, the source gives them in different places.

Experiments:
[1] = test system: presynaptic α-adrenoreceptor (vas deferens, pithed rat); experiment: Presynaptic α-adrenoreceptor antagonism in the pithed rat (reversal of clonidine block on vas deferens, i.v.); details: for i.v. dose of antagonist causing 50% reversal of clonidine block on vas deferens: Table 3, cumulative i.v. dosing, clonidine 100 μg/kg i.v., mean of a minimum of 4 rats
Procedure: The test drugs were injected intravenously in a cumulative dosing schedule and their abilities to reverse the inhibition of hypogastric nerve stimulation reflected their presynaptic antagonism.

[2] = test system: postsynaptic α-adrenoreceptor (pithed rat); experiment: Postsynaptic α-adrenoreceptor agonist activity in the pithed rat (diastolic blood pressure); details: for i.v. dose causing 50 mmHg increase in diastolic blood pressure: Table 5, naive pithed rats
Procedure: In vivo presynaptic α-adrenoreceptor antagonist activity was determined using the methods outlined in section 2.

[3] = target: T1, presynaptic α2-adrenoreceptor (rat vas deferens) (Rattus norvegicus, UniProt P22909); experiment: Presynaptic α-adrenoreceptor antagonism vs clonidine, isolated rat vas deferens (0.1 Hz stimulation); format: cell-based
T1 construct: on the rat vas deferens stimulated at a frequency of 0.1 Hz; from tissue; host or cells: isolated rat vas deferens
T1 sequence (P22909 1-465): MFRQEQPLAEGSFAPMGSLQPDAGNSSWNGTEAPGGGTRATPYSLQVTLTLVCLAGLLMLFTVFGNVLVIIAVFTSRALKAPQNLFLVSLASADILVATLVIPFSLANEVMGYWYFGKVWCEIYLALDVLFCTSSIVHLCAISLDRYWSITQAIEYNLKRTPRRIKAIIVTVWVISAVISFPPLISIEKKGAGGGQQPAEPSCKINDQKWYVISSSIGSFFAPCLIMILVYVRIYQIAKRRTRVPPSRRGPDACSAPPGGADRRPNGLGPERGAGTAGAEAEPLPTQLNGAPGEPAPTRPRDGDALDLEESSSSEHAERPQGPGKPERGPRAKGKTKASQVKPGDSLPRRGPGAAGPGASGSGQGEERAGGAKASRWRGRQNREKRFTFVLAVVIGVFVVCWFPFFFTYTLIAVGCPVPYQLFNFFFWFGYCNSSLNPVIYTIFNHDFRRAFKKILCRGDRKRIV

[4] = target: T2, postsynaptic α-adrenoreceptor (anococcygeus muscle) (Rattus norvegicus, UniProt P43140); experiment: Postsynaptic α-adrenoreceptor agonist activity, isolated anococcygeus muscle; format: cell-based; details: Table 4; negative log of molar concentration giving 50% maximum contraction; mean of a minimum of 3 experiments; read-out: Postsynaptic agonism pD2 (anococcygeus) (converted)
T2 construct: compound giving 50% maximum contraction in this instance, of the anococcygeus muscle; from tissue; host or cells: isolated anococcygeus muscle (rat)
T2 sequence (P43140 1-466): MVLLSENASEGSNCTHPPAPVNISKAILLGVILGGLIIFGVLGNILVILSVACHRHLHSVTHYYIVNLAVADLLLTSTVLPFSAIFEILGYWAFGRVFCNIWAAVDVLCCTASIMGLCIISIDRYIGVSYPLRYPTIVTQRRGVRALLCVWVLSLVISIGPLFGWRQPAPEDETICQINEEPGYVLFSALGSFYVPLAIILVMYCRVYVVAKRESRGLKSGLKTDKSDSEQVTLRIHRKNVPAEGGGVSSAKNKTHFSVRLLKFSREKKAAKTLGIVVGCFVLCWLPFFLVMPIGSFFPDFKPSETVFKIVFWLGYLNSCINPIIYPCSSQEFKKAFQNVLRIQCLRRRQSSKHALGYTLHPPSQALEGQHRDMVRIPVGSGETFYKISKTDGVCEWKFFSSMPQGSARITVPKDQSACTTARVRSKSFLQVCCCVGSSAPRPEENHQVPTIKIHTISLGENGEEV

[5] = target: T3, postsynaptic α-adrenoreceptor (rat anococcygeus muscle) (Rattus norvegicus, UniProt P43140); experiment: Postsynaptic α-adrenoreceptor antagonism vs noradrenaline contractions, isolated rat anococcygeus muscle; format: cell-based
T3 construct: the rat anococcygeus muscle is used to establish postsynaptic α-adrenoreceptor activity; from tissue; host or cells: isolated rat anococcygeus muscle
T3 sequence (P43140 1-466): T2 sequence (P43140 1-466)
From the text: This in vitro model is particularly useful as an initial screen for studying presynaptic activity in isolation since the physiological nature of the vas deferens tissue is such that the postsynaptic receptors located therein are particularly inaccessible to exogenous agents. In consequence an alternative tissue, the rat anococcygeus muscle is used to establish postsynaptic α-adrenoreceptor activity. Antagonism of noradrenaline contractions is used to determine pA2 values at postsynaptic α-adrenoreceptors.

Cc1ccc(N(CC2=NCCN2)c2cccc(O)c2)cc1 [Phentolamine mesylate, reference compound]
i.v. dose of antagonist causing 50% reversal of clonidine block on vas deferens [1]: 0.12 mg/kg

c1ccc2c(c1)CC(C1=NCCN1)O2 (stereo not drawn) [Example 6, 2-[2-(2,3-dihydrobenzofuranyl)]-2-imidazoline hydrochloride]
i.v. dose causing 50 mmHg increase in diastolic blood pressure [2]: 0.020 mg/kg
potency as postsynaptic α-adrenoreceptor agonist relative to phenylephrine ([2]; vs phenylephrine, conclusion of section 4): slightly more potent than phenylephrine
Kb [3]: 3.16 nM
presynaptic α-adrenoreceptor antagonist properties ([3]; qualitative, b182: in both isolated tissues and intact animals): displays presynaptic α-adrenoreceptor antagonist properties
potency as presynaptic α2 antagonist relative to the analogous dehydro compound ([3]; vs dehydro compound (Compound A), isolated vas deferens): more than 200 times
i.v. dose causing 50% reversal of clonidine block on vas deferens ([1]; Table 5): 0.030 mg/kg
EC50 [4]: 501 nM

c1ccc2oc(C3=NCCN3)cc2c1 [Compound A, 2-(2-benzofuranyl)-2-imidazoline, reference compound]
Kb ([3]; Table 4, isolated rat vas deferens, mean of a minimum of 3 experiments): 832 nM
Kb ([5]; Table 4, rat anococcygeus muscle, read-out: postsynaptic antagonist pA2 (rat anococcygeus muscle) (converted)): 5750 nM

COC(=O)[C@@H]1[C@H]2C[C@H]3c4[nH]c5ccccc5c4CCN3C[C@@H]2CC[C@@H]1O [Yohimbine HCl, reference compound]
i.v. dose of antagonist causing 50% reversal of clonidine block on vas deferens [1]: 0.86 mg/kg

CN1CCN2c3ccccc3Cc3ccccc3C2C1 (stereo not drawn) [Mianserin, reference compound]
maximum reversal of the inhibitory effects of clonidine on hypogastric nerve stimulation ([1]; cumulative intravenous dose of 4.4 mg/kg): 36%

CNC[C@H](O)c1cccc(O)c1 [Phenylephrine, reference compound]
i.v. dose causing 50 mmHg increase in diastolic blood pressure [2]: 0.030 mg/kg

Clc1ccc2c(c1)CC(C1=NCCN1)O2 (stereo not drawn) [Example 5, 2-[2-(5-chloro-2,3-dihydrobenzofuranyl)]-2-imidazoline hydrochloride]
Kb [3]: 6.31 nM
Pre/post synaptic ratio ([3]; antagonism vs clonidine (rat vas deferens) to antagonism vs noradrenaline (rat anococcygeus)): 100
i.v. dose of antagonist causing 50% reversal of clonidine block on vas deferens [1]: 0.102 mg/kg
relative potency against in vivo presynaptic α-adrenoreceptor stimulant effects of clonidine ([1]; compound of Example 5 compared with phentolamine): approximately equipotent
potency relative to yohimbine in pithed rats ([1]; vs yohimbine, i.v. (Table 3)): approximately 8 times
Kb ([5]; Table 2, isolated rat anococcygeus, mean of a minimum of 5 experiments, read-out: Postsynaptic antagonism pA2 vs Noradrenaline (anococcygeus) (converted)): 631 nM

Clc1cccc(Cl)c1N=C1NCCN1 [Clonidine, reference compound]
i.v. dose causing 50 mmHg increase in diastolic blood pressure [2]: 0.003 mg/kg

CN1CCN2c3ccccc3Cc3ccccc3C2C1 (stereo not drawn) [Mianserin HCl, reference compound]
i.v. dose of antagonist causing 50% reversal of clonidine block on vas deferens [1]: > 4.4 mg/kg
